# Measurements published in patent US9375456B2, “Antiviral composition containing an Aleurites fordii or Daphne kiusiana extract or a fraction thereof as an active ingredient” (priority 2009, dated 2016).
# Test system: NK92 cells
# Experiment: Dependence of Aleurites fordii extract-induced IFN-γ production on NF-κB/PKC signaling
# Type: cell-based, human
# Details: NK92 cells treated with inhibitor along with Aleurites fordii extract, FIG. 9
compound,measurement,value
CC(=O)c1c(O)c(C)c(O)c(Cc2c(O)c3c(c(C(=O)/C=C/c4ccccc4)c2O)OC(C)(C)C=C3)c1O [rotterin],induction of IFN-γ production by the Aleurites fordii extract,reduced
